For the assay, the target named is T1, MshA (CgMshA) (Corynebacterium glutamicum, UniProt Q8NTA6).
T1 sequence (Q8NTA6 1-418): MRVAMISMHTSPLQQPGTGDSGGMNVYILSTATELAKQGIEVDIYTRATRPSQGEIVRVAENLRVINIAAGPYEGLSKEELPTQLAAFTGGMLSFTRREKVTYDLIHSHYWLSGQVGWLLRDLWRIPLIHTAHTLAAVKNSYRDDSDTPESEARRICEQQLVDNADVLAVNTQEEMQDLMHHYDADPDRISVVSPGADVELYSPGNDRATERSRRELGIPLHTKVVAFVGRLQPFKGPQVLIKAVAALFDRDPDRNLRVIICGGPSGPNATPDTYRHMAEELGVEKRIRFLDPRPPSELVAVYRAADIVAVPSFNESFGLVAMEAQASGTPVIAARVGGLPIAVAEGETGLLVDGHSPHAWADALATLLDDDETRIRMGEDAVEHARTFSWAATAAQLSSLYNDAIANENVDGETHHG
Briefly: steady-state enzyme inhibition kinetics and slow-binding progress curves. Format: biochemical.

The values below come from article PMC2872082 (Journal of the American Chemical Society, 2010).

As usually defined, the Ki is a measure of affinity in units of concentration, obtained from inhibition or displacement.

Compound `CC(=O)N[C@H]1[C@@H](OP(=O)(O)OP(=O)(O)OC[C@H]2O[C@@H](n3ccc(=O)[nH]c3=O)[C@H](O)[C@@H]2O)O[C@](F)(CO)[C@@H](O)[C@@H]1O` [UDP-(5F)-GlcNAc] registered a Ki of 1400 ± 200 nM.
